Experiments:
[1] = target: Human immunodeficiency virus type 1 reverse transcriptase (Human immunodeficiency virus 1, UniProt Q72547); experiment: Inhibitory activity against HIV-1 reverse transcriptase enzyme
[2] = test system: Human immunodeficiency virus 1

Question: With `O=C1Nc2ccc(OC(F)(F)F)cc2C(C#CC2CC2)(C(F)(F)F)O1` (stereo not given) as the compound, how does the IC50 [1] read?
Answer: The IC50 was 1.25 µM.

Question: And the IC90 [2]?
Answer: The IC90 was 0.0189 µM.

Question: How did the IC50 [1] turn out when `O=C1Nc2ccc(-c3ccccc3)cc2C(C#CC2CC2)(C(F)(F)F)O1` (stereo not given) was run?
Answer: The IC50 was > 2 µM.

Question: What about the IC90 [2] of the same compound?
Answer: Its IC90 is 0.249 µM.

Question: With `O=C1Nc2c(Cl)cc(Cl)cc2C(C#CC2CC2)(C(F)(F)F)O1` (stereo not given) as the compound, how does the IC50 [1] read?
Answer: Its IC50 is > 2 µM.

Question: And the IC90 [2]?
Answer: The IC90 was 0.0286 µM.

Question: Which results are given for `O=C1Nc2cc3ccccc3cc2C(C#CC2CC2)(C(F)(F)F)O1` (stereo not given)?
Answer: IC50 [1]: 1.91 µM; IC90 [2]: 0.0269 µM

Question: How did the IC50 [1] turn out when `COc1ccc2c(c1)C(C#CC1CC1)(C(F)(F)F)OC(=O)N2` (stereo not given) was run?
Answer: Its IC50 is 0.131 µM.

Question: What about the IC90 [2] of the same compound?
Answer: The IC90 was 0.002 µM.

Question: `O=C1Nc2c(F)cc(F)c(F)c2C(C#CC2CC2)(C(F)(F)F)O1` (stereo not given) was tested. Which IC50 [1] did it give?
Answer: The IC50 was 0.8 µM.

Question: What about the IC90 [2] of the same compound?
Answer: The IC90 was 0.014 µM.

Question: With `CC(C)c1ccc2c(c1)C(C#CC1CC1)(C(F)(F)F)OC(=O)N2` (stereo not given) as the compound, how does the IC50 [1] read?
Answer: Its IC50 is 1.96 µM.

Question: And the IC90 [2]?
Answer: Its IC90 is 0.0278 µM.

Question: Which IC50 [1] does the source give for `Cc1ccc2c(c1)C(C#CC1CC1)(C(F)(F)F)OC(=O)N2` (stereo not given) here?
Answer: The IC50 was 0.133 µM.

Question: And the IC90 [2]?
Answer: The IC90 was 0.00711 µM.

Question: With `O=C1Nc2c(F)cc(Cl)cc2C(C#CC2CC2)(C(F)(F)F)O1` (stereo not given) as the compound, how does the IC90 [2] read?
Answer: Its IC90 is 0.00719 µM.

Question: What does the source list for `CN(C)c1ccc2c(c1)C(C#CC1CC1)(C(F)(F)F)OC(=O)N2` (stereo not given)?
Answer: IC50 [1]: 0.816 µM; IC90 [2]: 0.00833 µM

Question: How did the IC50 [1] turn out when `O=C1Nc2cc(F)c(F)c(F)c2C(C#CC2CC2)(C(F)(F)F)O1` (stereo not given) was run?
Answer: The IC50 was 0.442 µM.

Question: What about the IC90 [2] of the same compound?
Answer: The IC90 was 0.0196 µM.

Question: `O=C1Nc2ccc(F)cc2C(C#CC2CC2)(C(F)(F)F)O1` (stereo not given) was tested. Which IC50 [1] did it give?
Answer: Its IC50 is 0.19 µM.

Question: And the IC90 [2]?
Answer: The IC90 was 0.00735 µM.

Question: `O=C1Nc2ccc(F)c(F)c2C(C#CC2CC2)(C(F)(F)F)O1` (stereo not given) was tested. Which IC50 [1] did it give?
Answer: The IC50 was 0.084 µM.

Question: Which IC50 [1] does the source give for `O=C1Nc2c(F)ccc(F)c2C(C#CC2CC2)(C(F)(F)F)O1` (stereo not given) here?
Answer: Its IC50 is 0.796 µM.

Question: What about the IC90 [2] of the same compound?
Answer: The IC90 was 0.018 µM.

Question: Which IC50 [1] does the source give for `O=C1Nc2ccccc2C(C#CC2CC2)(C(F)(F)F)O1` (stereo not given) here?
Answer: Its IC50 is 0.478 µM.

Question: And the IC90 [2]?
Answer: Its IC90 is 0.0103 µM.

Question: For `O=C1Nc2c(cc(F)c(F)c2F)C(C#CC2CC2)(C(F)(F)F)O1` (stereo not given), which IC50 [1] is on record?
Answer: Its IC50 is > 2 µM.

Question: What about the IC90 [2] of the same compound?
Answer: Its IC90 is 0.418 µM.

Reference: ChEMBL document CHEMBL1132524, “Synthesis and evaluation of analogs of Efavirenz (SUSTIVA) as HIV-1 reverse transcriptase inhibitors” (Bioorg Med Chem Lett, 1999)
